Columns and labels:
[1] = target: T1, Serine/threonine-protein kinase D1 (Homo sapiens) (UniProt Q15139); experiment: Selectivity interaction (KinomeScan (DiscoverX)) EUB0000655a PRKD1; details: at 10 µM
T1 sequence (whole entry): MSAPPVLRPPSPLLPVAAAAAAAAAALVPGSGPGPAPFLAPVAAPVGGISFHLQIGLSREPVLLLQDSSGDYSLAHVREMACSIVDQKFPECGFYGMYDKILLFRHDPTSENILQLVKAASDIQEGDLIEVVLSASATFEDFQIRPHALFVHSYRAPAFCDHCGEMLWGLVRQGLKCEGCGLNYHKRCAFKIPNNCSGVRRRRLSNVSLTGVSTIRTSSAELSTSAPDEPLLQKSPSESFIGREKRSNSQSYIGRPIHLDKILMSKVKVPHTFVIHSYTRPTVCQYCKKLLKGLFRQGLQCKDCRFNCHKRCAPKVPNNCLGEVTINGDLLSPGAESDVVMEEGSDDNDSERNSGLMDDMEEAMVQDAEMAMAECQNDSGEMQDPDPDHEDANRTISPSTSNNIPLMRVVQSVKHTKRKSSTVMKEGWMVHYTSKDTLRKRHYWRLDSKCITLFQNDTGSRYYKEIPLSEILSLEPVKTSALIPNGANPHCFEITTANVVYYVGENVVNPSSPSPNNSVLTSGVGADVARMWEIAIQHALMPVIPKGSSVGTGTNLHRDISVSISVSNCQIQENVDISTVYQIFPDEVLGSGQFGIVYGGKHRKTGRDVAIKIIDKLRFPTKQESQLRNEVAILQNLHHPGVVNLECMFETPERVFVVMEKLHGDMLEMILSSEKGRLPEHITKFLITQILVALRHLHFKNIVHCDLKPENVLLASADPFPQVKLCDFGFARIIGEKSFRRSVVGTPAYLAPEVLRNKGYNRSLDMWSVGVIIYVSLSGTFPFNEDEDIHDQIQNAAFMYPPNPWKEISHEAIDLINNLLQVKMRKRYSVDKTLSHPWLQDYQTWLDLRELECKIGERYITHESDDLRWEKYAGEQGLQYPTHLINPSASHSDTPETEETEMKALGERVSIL

[2] = target: T2, Dual specificity mitogen-activated protein kinase kinase 4 (Homo sapiens) (UniProt P45985); experiment: Selectivity interaction (KinomeScan (DiscoverX)) EUB0001079a MAP2K4; details: at 1 µM
T2 sequence (whole entry): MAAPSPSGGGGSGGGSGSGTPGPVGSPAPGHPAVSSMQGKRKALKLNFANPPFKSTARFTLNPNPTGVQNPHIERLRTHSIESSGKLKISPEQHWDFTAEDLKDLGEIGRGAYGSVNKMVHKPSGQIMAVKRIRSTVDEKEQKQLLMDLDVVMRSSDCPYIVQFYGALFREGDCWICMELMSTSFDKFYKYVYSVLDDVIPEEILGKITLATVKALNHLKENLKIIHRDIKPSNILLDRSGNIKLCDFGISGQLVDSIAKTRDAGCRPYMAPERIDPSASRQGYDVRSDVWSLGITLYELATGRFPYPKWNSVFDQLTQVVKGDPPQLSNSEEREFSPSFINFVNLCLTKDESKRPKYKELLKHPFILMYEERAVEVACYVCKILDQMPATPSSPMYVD

[3] = target: Mitogen-activated protein kinase kinase kinase 14 (Homo sapiens) (UniProt Q99558); experiment: Selectivity interaction (KinomeScan (DiscoverX)) EUB0001079a MAP3K14; details: at 1 µM
[4] = target: Kappa-type opioid receptor (Homo sapiens, UniProt P41145); experiment: Selectivity interaction (Opiate Kappa receptor assay, human recombinant ) EUB0000877a OPRK1
[5] = tested on: Tyrosine-protein kinase ABL1 (Homo sapiens), P00519 [Y253F]; details: at 10 µM
[6] = target: Tyrosine-protein kinase SYK (Homo sapiens, UniProt P43405)
[7] = target: T3, Protein kinase C iota type (Homo sapiens) (UniProt P41743); experiment: Selectivity interaction (ActivX KiNativ screen (kinase selectivity in THP-1 cell lysates)) EUB0000639a PRKCI; format: subcellular; details: lysate
T3 sequence (whole entry): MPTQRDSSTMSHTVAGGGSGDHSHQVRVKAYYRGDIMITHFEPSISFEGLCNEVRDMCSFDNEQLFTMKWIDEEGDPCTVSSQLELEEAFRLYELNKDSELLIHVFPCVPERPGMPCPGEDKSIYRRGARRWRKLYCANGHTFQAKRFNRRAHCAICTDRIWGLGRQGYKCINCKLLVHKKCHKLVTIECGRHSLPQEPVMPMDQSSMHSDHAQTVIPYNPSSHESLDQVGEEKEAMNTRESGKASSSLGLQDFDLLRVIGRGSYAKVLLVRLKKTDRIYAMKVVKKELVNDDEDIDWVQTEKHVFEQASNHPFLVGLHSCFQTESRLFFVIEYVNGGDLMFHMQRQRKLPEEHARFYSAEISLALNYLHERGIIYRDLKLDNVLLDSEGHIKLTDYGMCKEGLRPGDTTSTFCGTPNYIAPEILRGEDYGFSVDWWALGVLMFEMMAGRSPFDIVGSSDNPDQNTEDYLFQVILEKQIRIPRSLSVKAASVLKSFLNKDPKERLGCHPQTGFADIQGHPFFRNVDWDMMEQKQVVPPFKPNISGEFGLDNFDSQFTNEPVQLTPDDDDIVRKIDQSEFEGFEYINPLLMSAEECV

[8] = target: MAP kinase-interacting serine/threonine-protein kinase 2 (Homo sapiens, UniProt Q9HBH9); experiment: Selectivity interaction (KinomeScan (DiscoverX)) EUB0000607a MKNK2; details: at 10 µM
[9] = target: RAC-alpha serine/threonine-protein kinase (Homo sapiens, UniProt P31749); experiment: Selectivity interaction (KinomeScan (DiscoverX)) EUB0000607a AKT1; details: at 10 µM
[10] = target: Cyclin-dependent kinase 17 (Homo sapiens) (UniProt Q00537); experiment: Selectivity interaction (KinomeScan (DiscoverX)) EUB0001049a CDK17; details: at 1 µM
[11] = target: Serine/threonine-protein kinase WNK3 (Homo sapiens) (UniProt Q9BYP7); experiment: Selectivity interaction (Ambit KINOMEscan and KiNATiv profiling in Jurkat cells) EUB0000090b WNK3; format: cell-based; details: at 1 µM
[12] = target: Serine/threonine-protein kinase 38-like (Homo sapiens) (UniProt Q9Y2H1); experiment: Selectivity interaction (ActivX KiNativ screen (ex vivo kinase selectivity in human PBMCs)) EUB0001619a STK38L; format: cell-based; details: PBMC, at 1 µM
[13] = target: Serine/threonine-protein kinase Nek7 (Homo sapiens) (UniProt Q8TDX7); experiment: Selectivity interaction (ActivX KiNativ screen (ex vivo kinase selectivity in human PBMCs)) EUB0001619a NEK7; format: cell-based; details: PBMC, at 1 µM
Chain of Serine/threonine-protein kinase Nek7 (Homo sapiens) (Q8TDX7 whole entry, looked up): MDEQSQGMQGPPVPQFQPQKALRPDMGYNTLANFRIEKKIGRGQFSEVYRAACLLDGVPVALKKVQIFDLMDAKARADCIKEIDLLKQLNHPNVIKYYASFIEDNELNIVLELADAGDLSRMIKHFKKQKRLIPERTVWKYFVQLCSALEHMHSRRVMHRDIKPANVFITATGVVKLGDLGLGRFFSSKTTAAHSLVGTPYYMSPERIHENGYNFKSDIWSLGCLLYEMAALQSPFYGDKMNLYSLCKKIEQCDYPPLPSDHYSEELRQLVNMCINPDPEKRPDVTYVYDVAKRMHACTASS

Chain of Kappa-type opioid receptor (P41145 whole entry): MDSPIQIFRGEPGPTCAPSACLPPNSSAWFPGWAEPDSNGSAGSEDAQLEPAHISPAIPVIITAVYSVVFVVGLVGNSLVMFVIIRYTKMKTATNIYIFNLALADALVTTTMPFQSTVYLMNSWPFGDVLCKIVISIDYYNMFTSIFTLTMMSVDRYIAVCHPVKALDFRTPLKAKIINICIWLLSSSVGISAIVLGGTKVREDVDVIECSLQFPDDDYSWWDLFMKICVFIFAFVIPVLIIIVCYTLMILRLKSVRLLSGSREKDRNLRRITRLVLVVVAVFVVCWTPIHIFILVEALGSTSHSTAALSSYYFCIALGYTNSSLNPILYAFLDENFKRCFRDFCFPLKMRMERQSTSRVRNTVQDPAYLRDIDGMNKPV
Chain of Serine/threonine-protein kinase WNK3 (Homo sapiens) (Q9BYP7 whole entry): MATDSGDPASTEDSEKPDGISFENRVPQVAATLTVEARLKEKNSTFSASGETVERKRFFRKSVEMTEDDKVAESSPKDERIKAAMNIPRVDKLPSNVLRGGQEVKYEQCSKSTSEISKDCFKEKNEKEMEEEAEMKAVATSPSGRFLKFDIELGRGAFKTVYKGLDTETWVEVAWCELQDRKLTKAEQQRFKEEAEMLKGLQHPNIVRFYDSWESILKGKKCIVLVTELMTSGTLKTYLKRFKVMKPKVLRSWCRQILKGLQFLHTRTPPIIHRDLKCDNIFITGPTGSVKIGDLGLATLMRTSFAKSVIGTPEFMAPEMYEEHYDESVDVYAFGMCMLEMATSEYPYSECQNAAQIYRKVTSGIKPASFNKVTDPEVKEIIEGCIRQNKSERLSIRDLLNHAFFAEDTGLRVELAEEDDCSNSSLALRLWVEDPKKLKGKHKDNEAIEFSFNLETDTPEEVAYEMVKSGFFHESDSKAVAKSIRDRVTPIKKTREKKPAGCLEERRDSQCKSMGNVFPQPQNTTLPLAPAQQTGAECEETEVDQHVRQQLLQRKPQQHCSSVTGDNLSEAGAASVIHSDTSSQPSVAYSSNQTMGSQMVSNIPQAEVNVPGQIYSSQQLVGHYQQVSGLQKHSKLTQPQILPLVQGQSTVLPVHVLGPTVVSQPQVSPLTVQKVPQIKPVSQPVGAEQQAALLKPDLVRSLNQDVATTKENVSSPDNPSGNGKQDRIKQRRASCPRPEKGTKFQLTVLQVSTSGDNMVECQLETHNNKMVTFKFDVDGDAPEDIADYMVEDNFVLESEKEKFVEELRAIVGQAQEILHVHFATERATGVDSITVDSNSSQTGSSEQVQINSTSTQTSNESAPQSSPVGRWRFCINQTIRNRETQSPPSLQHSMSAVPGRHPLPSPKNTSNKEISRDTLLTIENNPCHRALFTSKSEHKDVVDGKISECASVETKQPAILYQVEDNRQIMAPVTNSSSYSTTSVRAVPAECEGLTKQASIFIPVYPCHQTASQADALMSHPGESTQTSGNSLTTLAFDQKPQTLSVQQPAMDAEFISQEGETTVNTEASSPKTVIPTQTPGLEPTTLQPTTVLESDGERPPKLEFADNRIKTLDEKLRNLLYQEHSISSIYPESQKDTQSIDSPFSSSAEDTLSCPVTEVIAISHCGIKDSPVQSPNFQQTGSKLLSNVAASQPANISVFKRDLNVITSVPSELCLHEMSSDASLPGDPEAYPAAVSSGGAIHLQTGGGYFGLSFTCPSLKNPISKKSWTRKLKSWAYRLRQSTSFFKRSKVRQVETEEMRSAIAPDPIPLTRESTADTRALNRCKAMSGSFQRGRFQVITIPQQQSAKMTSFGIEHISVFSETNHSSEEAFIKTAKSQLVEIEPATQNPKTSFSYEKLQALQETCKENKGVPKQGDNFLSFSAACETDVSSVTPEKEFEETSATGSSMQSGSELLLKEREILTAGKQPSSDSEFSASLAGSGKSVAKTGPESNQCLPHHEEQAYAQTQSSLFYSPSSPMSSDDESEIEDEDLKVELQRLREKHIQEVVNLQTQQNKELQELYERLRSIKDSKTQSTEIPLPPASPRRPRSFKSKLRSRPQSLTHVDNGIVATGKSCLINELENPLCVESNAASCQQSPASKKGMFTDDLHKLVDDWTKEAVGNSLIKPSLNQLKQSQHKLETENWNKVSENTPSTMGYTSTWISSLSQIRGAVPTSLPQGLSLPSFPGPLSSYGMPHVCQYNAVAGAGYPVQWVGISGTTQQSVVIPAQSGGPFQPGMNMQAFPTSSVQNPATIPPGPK
Chain of RAC-alpha serine/threonine-protein kinase (P31749 whole entry): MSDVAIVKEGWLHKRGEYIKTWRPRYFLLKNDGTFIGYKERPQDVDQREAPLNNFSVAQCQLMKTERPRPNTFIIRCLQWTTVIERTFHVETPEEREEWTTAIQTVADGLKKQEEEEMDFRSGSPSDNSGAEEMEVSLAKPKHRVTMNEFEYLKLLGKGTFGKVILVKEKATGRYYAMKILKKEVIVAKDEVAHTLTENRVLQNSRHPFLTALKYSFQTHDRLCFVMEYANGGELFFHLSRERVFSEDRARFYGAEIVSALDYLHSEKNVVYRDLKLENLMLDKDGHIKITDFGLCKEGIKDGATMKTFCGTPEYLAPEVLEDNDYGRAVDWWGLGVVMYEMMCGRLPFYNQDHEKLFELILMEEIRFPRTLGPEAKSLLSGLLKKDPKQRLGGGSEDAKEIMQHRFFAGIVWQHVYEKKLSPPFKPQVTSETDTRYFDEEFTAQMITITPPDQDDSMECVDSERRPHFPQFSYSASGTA
Chain of MAP kinase-interacting serine/threonine-protein kinase 2 (Q9HBH9 whole entry, looked up): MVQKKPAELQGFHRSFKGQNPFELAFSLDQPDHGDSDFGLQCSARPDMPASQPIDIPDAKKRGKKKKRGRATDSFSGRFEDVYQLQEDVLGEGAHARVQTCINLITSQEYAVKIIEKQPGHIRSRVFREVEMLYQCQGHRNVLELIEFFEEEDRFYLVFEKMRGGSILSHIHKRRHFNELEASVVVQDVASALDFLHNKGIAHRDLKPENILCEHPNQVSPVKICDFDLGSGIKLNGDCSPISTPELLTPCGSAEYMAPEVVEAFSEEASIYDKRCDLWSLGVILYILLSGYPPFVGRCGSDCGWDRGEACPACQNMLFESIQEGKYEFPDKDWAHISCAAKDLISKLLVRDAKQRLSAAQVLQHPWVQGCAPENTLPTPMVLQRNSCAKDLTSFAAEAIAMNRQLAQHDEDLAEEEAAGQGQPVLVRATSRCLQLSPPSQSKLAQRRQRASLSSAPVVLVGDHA
Chain of Cyclin-dependent kinase 17 (Homo sapiens) (Q00537 whole entry, looked up): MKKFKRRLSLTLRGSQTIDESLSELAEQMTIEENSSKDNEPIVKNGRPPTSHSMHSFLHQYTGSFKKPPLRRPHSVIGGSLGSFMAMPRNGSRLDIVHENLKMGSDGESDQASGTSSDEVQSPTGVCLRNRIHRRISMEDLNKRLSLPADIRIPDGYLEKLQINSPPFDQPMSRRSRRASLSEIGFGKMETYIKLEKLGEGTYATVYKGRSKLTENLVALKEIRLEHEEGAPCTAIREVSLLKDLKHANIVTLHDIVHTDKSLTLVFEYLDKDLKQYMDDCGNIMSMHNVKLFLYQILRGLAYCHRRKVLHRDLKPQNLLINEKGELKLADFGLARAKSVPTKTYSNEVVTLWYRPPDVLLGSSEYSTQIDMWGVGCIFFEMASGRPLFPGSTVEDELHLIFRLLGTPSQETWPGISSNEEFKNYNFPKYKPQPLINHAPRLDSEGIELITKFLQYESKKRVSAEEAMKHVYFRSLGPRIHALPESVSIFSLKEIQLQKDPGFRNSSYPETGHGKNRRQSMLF
Chain of Serine/threonine-protein kinase 38-like (Homo sapiens) (Q9Y2H1 2-464 limits assumed): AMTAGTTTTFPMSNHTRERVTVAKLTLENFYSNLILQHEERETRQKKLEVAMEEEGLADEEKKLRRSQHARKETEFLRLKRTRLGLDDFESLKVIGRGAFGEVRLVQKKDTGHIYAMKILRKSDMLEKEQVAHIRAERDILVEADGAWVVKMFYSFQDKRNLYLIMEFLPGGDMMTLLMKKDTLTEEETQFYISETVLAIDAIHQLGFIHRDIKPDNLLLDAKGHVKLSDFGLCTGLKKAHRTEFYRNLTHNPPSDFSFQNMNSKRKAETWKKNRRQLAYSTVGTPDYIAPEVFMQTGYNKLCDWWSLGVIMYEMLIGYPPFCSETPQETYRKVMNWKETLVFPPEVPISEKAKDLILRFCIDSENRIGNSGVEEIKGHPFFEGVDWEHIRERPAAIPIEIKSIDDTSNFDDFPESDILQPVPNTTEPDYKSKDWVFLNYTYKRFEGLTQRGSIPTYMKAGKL

## CN(C)CCOc1ccc(-c2nc(-c3ccncc3)c(-c3ccc4c(c3)CC/C4=N\O)[nH]2)cc1
[1]
  % of control: 3.8%

## Nc1cnc(N2CCc3cc(S(=O)(=O)Nc4c(F)cc(Cl)cc4F)cc(N4CCCC4=O)c32)nc1 [TP-020n]
[2]
  % of control: 100%
[3]
  % of control: 75%

## CCC(=O)N1CC[C@H](Nc2ncnc3c2CN(c2cnc(OC)c(C(F)(F)F)c2)CC3)C1 [LENIOLISIB]
[4]
  IC50: > 30 µM

## Cc1cc([C@@H](C)Nc2ccccc2C(=O)O)c2nc(N3CCOCC3)cc(=O)n2c1 [AZD-6482]
[5]
  % of control: 100%

## CCc1cccc(CC)c1NC(=O)c1nn(C)c2c1CCc1cnc(Nc3ccc(C(=O)NC4CCN(C)CC4)cc3OC(F)(F)F)nc1-2
[6]
  IC50: > 10 µM

## CC[C@@H]1[C@H](F)C(=O)N[C@@H]1COc1nccc2cc(C(N)=O)c(OC)cc12 [ZIMLOVISERTIB]
[7]; at 0.01 µM
  % of inhibition: 8.5%
[7]; at 0.04 µM
  % of inhibition: -2.3%
[7]; at 0.2 µM
  % of inhibition: -7.6%
[7]; at 1 µM
  % of inhibition: 6.9%
[7]; at 5 µM
  % of inhibition: -26.2%

## CNC(=O)Nc1ccc(-c2nc(N3CC4CCC(C3)O4)c3cnn(C4CCC5(CC4)OCCO5)c3n2)cc1
[8]
  % of control: 87%
[9]
  % of control: 81%

## COc1cc(Nc2nc(C)cc(-c3cnn4nc(OC)ccc34)n2)cc(C(F)(F)F)c1
[10]
  % of control: 100%

## CN(C)C/C=C/C(=O)Nc1ccc(C(=O)N2CCCC(Nc3ncc(Cl)c(-c4c[nH]c5ccccc45)n3)C2)cc1 (configuration not stated)
[11]
  % of control: 89%

## N#Cc1cccc(-c2c[nH]c3ncnc(N4CCOCC4)c23)c1
[12]
  % of inhibition: 22%
[13]
  % of inhibition: -5%

Reference: ChEMBL document CHEMBL5465560, “Selectivity Literature for EUbOPEN Chemogenomic Library” (2024)
